This is an account of results in patent US20140322771A1, “Lipid Production” (THE UNIVERSITY OF QUEENSLAND, priority 2010, published 2014).

“Also recorded” adds a separate entry of the source.

In data set [1] the test system is S. cerevisiae WT and sld mutant strains. Kind of data set: Formation of supersized lipid droplets (SLDs) in yeast, Nile red staining and fluorescence microscopy. It is filed as cell-based, Saccharomyces cerevisiae. As for the experimental part: To screen for yeast mutants that generate supersized LDs, cells were cultured in synthetic complete media (0.67% yeast nitrogen base, 2% dextrose, and amino acids) in 96-well plates at 30° C. till stationary phase. For TetO7-regulated strains, 15 μg/ml doxycycline was added to repress specific genes. Cells were stained with 20 μg/ml Nile red for LDs and observed by fluorescence microscopy. Yeast strains found to contain SLDs were recultured in synthetic complete media with aeration in 10 ml culture tubes to confirm the phenotype. These strains were also grown in YPD media (1% yeast extract, 2% peptone, and 2% dextrose) to examine the morphology of LDs.
For phospholipid precursor treatment, synthetic complete medium was supplemented with 1 mM choline, 1 mM ethanolamine, or 75 μM inositol.
Fluorescent imaging was performed under a Leica CTR5500 microscope (Wetzlar, Germany) with an EL6000 fluorescent lamp. Images were taken with a DFC300 FX digital camera and a Leica LAS AF software. Yeast cells were viewed under a ×100/1.30 oil immersion objective lens. A 450-490-nm bandpass excitation filter, a 510 dichromatic mirror, and a 515-nm longpass emission filter (Leica filter cube I3) were chosen to observe Nile red-stained LDs. For statistical presentation of the percentage of cells containing supersized LDs, 200 cells were observed and percentage was calculated. The experiments were done in triplicates and the result was shown as mean±SD. Mammalian LDs were stained with Bodipy 493/503 (Invitrogen) and observed with a 470/40-nm bandpass excitation filter, a 500-nm dichromatic mirror, and a 525/50-nm bandpass emission filter (Leica filter cube GFP).

For data set [2], the system named is lipid droplets of S. cerevisiae mutant strains. Briefly: Lipidomic analysis of lipid droplets isolated from yeast (PE/PL and PL/TAG ratio). It is filed as cell-based, Saccharomyces cerevisiae. As for the experimental part:
Lipid droplets were isolated as described in Fei et al. (Fei et al., (2008), “Fld1p, a functional homologue of human seipin, regulates the size of lipid droplets in yeast”, J Cell Biol 180: 473-482).
Lipids were extracted from zymolase-digested lyophilized yeast cells, isolated ER microsomes or lipid droplets. Briefly 900 μl ice-clod chlorofom:methanol (1:2) was added to samples. Mixtures were vigorously vortexed for 1 min, and incubated for 2 h in vacuum container with rotary shaking at 4° C. Then 400 μl ice-cold water and 300 μl chloroform were added, vortexed and incubated on ice for 1 min. After centrifugation at 12000 rpm for 3 min at 4° C., the lower organic phase was collected. Subsequently, 50 μl 1 M HCl and 500 μl chloroform were added to the remainder, vortexed, and incubated on ice for 3 min. The lower organic phase was also collected after centrifugation at 12000 rpm for 3 min at 4° C., and combined with the first extract. The extracted lipids were blown dry with nitrogen gas, and resuspended in solvent for mass spectrometry analysis.
Lipidomic analysis, and quantitative measurement of neutral lipids via thin layer chromatography (TLC) were performed as described in Fei et al. (Fei et al., (2008), “Fld1p, a functional homologue of human seipin, regulates the size of lipid droplets in yeast”, J Cell Biol 180: 473-482) and Low et al. (Low et al., (2008), “Caspase-dependent and -independent lipotoxic cell-death pathways in fission yeast”, J Cell Sci 121: 2671-2684). TLC plates were developed in chloroform/methanol/water (65:25:4) to separate phospholipid species.

Data set [3] relates to Chlamydomonas homologue of CDS1p (gene C—30067). Kind of data set: Lipid droplet accumulation in Chlamydomonas after RNAi knockdown of the CDS1p homologue (Nile red). It is filed as cell-based. The settings on record: C. reinhardtii 21 gr transformed with hairpin RNAi construct, compared with wild type. As for the experimental part: A hairpin RNAi construct was made by using 1st-3rd exon of the Chlamydomonas homologue of CDS1p driven by LC8 promoter. The gene name of the homologue is C—30067. The LC8 promoter is from Chlamydomonas.
This construct was transformed into Chlamydomonas using a glass-bead method. The selection marker for transformation was APHVIII, whose expression conferred resistant to paromomysin.
The survival strains on agar plates were screened by using Nile Red staining. 1 ug/ml final concentration of Nile red was used.
A Zeiss fluorescence microscope (Observer.Z1) with GFP filter was used for screening putative RNAi strains.

As for `NCCO` [ethanolamine], in data set [1] (most of the mutants, SC media supplemented with 1 mM ethanolamine), the SLD formation result is reported as “enhanced SLD formation in most of the mutants”. For the same molecule, the “proportion of PE on lipid droplets” value in data set [2] (fld1Δ and cds1 cells, SC medium with ethanolamine) was “significantly increased”. Also, the “PE to PL ratio of LDs” value in data set [2] (ino4Δ cells, SC medium with ethanolamine) is reported as “moderately increased”.
Regarding `O[C@H]1[C@H](O)[C@@H](O)[C@H](O)[C@@H](O)[C@H]1O` [inositol], the SLD formation result in data set [1] (all sld mutants, SC media supplemented with 75 μM inositol) is given as “reduced the SLD formation in all mutants; also recorded: significant reduction of SLD formation”. In data set [1] (ino4Δ cells, inositol addition, higher PE to PL ratio persisted), the “biogenesis of supersized LDs” value is on record as “completely abolished the biogenesis of supersized LDs”. The “phospholipid to TAG ratio of LDs” value in data set [2] (cds1 or ino4Δ mutant, inositol supplementation) was “did not increase”.
For the molecule `CCCCCCCC/C=C\CCCCCCCC(=O)O` [oleate], the “number of cells producing SLD” value in data set [1] (pah1Δ cells, supplement 1 mM each (about 3% of cells without supplement)) is “no effect”.

B1: CDS1 gene RNAi: hairpin RNAi construct of exons 1-3 of the Chlamydomonas CDS1p homologue (C—30067, SEQ ID NO: 41), LC8 promoter (nucleic acid)
DNA: ATGCGACCAAAACAACAAGCTCAGGTCACCGCCGCGGAGGACACCGCGTCGGAGCCGGAGCCGGAGCCCAAGCCCGTGGATCGAAAGTCGAGGCTCAGGTCCTTCCGCGTACGCACCATCTCCTCGGTCTTGCTCATCGGCGGGTTCATCGGCATCATTTGGGCGGGTCATGTGCCGCTTATGTTCTTCATCCTGCTACTCCAGTTCCTGGTGGCCCGGGAGCTCTTCCGCATCGCCTACATAGCGGAGAAGTCCAAACGCAGCC
modifications: LC8 promoter; Hairpin RNAi construct targetting Chlamydomonas sp. CDS1p Homologue
As for B1, the lipid droplet accumulation entry in data set [3] is “accumulated lipid droplet drastically”.
